According to PubChem BioAssay (NCI):
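Five concentrations, 48 hours, 96-well plates. TGI marks complete inhibition of growth.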

Legend:
Assay in all cases: NCI tumour cell line growth inhibition, 48 h
[1] = test system: UACC-257 melanoma
[2] = test system: HCT-15 colon
[3] = test system: SK-OV-3 ovarian
[4] = test system: RXF 393 renal
[5] = test system: K-562 leukemia
[6] = test system: DMS 273 small cell lung
[7] = test system: MALME-3M melanoma
[8] = test system: ACHN renal
[9] = test system: SN12C renal
[10] = test system: DLD-1 colon
[11] = test system: XF 498 CNS
[12] = test system: A549 NSCLC
[13] = test system: HCT-116 colon
[14] = test system: UACC-62 melanoma
[15] = test system: NCI-H460 lung
[16] = test system: TK-10 renal
[17] = test system: KM12 colon
[18] = test system: NCI-H23 lung
[19] = test system: RPMI-8226 leukemia
[20] = test system: LOX IMVI melanoma
[21] = test system: UO-31 renal
[22] = test system: SNB-75 CNS
[23] = test system: HT29 colon
[24] = test system: OVCAR-3 ovarian
[25] = test system: EKVX NSCLC
[26] = test system: MOLT-4 leukemia
[27] = test system: HOP-18 NSCLC
[28] = test system: M19-MEL melanoma
[29] = test system: U251 CNS
[30] = test system: HOP-62 NSCLC
[31] = test system: 786-0 renal
[32] = test system: NCI-H226 lung
[33] = test system: OVCAR-8 ovarian
[34] = test system: COLO 205 colon
[35] = test system: SK-MEL-28 melanoma
[36] = test system: CCRF-CEM leukemia
[37] = test system: NCI-H522 lung
[38] = test system: M14 melanoma
[39] = test system: SNB-19 CNS
[40] = test system: SF-295 CNS
[41] = test system: IGROV1 ovarian
[42] = test system: SF-539 CNS
[43] = test system: SW-620 colon
[44] = test system: DMS 114 small cell lung
[45] = test system: A498 renal
[46] = test system: HCC-2998 colon
[47] = test system: SF-268 CNS
[48] = test system: KM20L2 colon
[49] = test system: SK-MEL-2 melanoma
[50] = test system: OVCAR-5 ovarian
[51] = test system: SK-MEL-5 melanoma
[52] = test system: LXFL 529 NSCLC
[53] = test system: SNB-78 CNS
[54] = test system: HL-60(TB) leukemia
[55] = test system: CAKI-1 renal
[56] = test system: OVCAR-4 ovarian
[57] = test system: SR leukemia
[58] = test system: HOP-92 NSCLC

Measured: TGI

OCC1=CC(NC2CC(CO)C(O)C(O)C2O)C(O)C(O)C1O (configuration not stated)
> 100 µM: [1] | [2] | [3] | [4] | [5] | [6] | [7] | [8] | [9] | [10] | [11] | [12] | [13] | [14] | [15] | [16] | [17] | [18] | [19] | [20] | [21] | [22] | [23] | [24] | [25] | [26] | [27] | [28] | [29] | [30] | [31] | [32] | [33] | [34] | [35] | [36] | [37] | [38] | [39] | [40] | [41] | [42] | [43] | [44]

CCCC1C(=O)CCc2c(OC)ccc(OC)c21 (configuration not stated)
> 100 µM: [1] | [2] | [45] | [3] | [4] | [5] | [6] | [7] | [8] | [9] | [10] | [11] | [46] | [47] | [12] | [48] | [49] | [13] | [14] | [15] | [16] | [50] | [17] | [51] | [18] | [19] | [20] | [21] | [22] | [23] | [52] | [24] | [25] | [26] | [27] | [28] | [29] | [30] | [53] | [31] | [33] | [34] | [36] | [38] | [39] | [40] | [54] | [41] | [55] | [56] | [42] | [43] | [44]

CN(C)C(=S)N=C(Nc1ccccc1)Nc1ccccc1
> 100 µM: [1] | [2] | [45] | [3] | [4] | [5] | [57] | [6] | [7] | [8] | [9] | [46] | [47] | [12] | [48] | [58] | [49] | [13] | [14] | [15] | [16] | [50] | [17] | [51] | [18] | [19] | [20] | [21] | [22] | [23] | [24] | [25] | [26] | [28] | [29] | [30] | [53] | [31] | [32] | [33] | [34] | [35] | [36] | [37] | [38] | [39] | [40] | [54] | [41] | [55] | [56] | [42] | [43] | [44]

COC(=O)C1(C(C)C)CCc2c(OC)ccc(OC)c2C1=O (configuration not stated)
> 100 µM: [1] | [2] | [45] | [3] | [5] | [7] | [8] | [9] | [10] | [11] | [46] | [47] | [12] | [48] | [49] | [13] | [14] | [15] | [16] | [50] | [17] | [51] | [19] | [20] | [21] | [23] | [52] | [24] | [25] | [26] | [27] | [28] | [29] | [30] | [53] | [31] | [33] | [34] | [35] | [36] | [37] | [38] | [39] | [40] | [54] | [41] | [55] | [56] | [42] | [43] | [44]
